Tests used:
p38 MAP kinase = target: T1, p38 MAP kinase (Homo sapiens, UniProt Q16539); assay: Inhibition of p-38 (MAP) kinase, in vitro assay (transfer of γ-33P from ATP to Myelin Basic Protein); type: biochemical; details: phosphorylated recombinant p38 MAP kinase, MBP substrate, γ-33P-ATP, 30° C.; read-out: IC50, μM (p-38 inhibitory activity)
T1 construct: made in house; host or cells: E. coli (co-expressed with SEK-1 and MEKK to obtain the phosphorylated form)
Experimental: The p-38 MAP kinase inhibitory activity of compounds of this invention in vitro was determined by measuring the transfer of the γ-phosphate from γ-^33P-ATP by p-38 kinase to Myelin Basic Protein (MBP), using the a minor modification of the method described in Ahn, N. G.; et al. J. Biol. Chem. Vol. 266(7), 4220-4227, (1991).
The phosphorylated form of the recombinant p38 MAP kinase was expressed with SEK-1 and MEKK in E. Coli and then purified by affinity chromatography using a Nickel column.
The phosphorylated p38 MAP kinase was diluted in kinase buffer (20 mM 3-(N-morpholino)propanesulfonic acid, pH 7.2, 25 mM β-glycerol phosphate, 5 mM ethylene glycol-bis(beta-aminoethyl ether)-N,N,N′,N′-tetraacetic acid, 1 mM sodium vanadate, 1 mM dithiothreitol, 40 mM magnesium chloride). Test compound dissolved in DMSO or only DMSO (control) was added and the samples were incubated for 10 min at 30° C. The kinase reaction was initiated by the addition of a substrate cocktail containing MBP and γ-^33P-ATP. After incubating for an additional 20 min at 30° C., the reaction was terminated by adding 0.75% phosphoric acid. The phosphorylated MBP was then separated from the residual γ-^33P-ATP using a phosphocellulose membrane (Millipore, Bedford, Mass.) and quantitated using a scintillation counter (Packard, Meriden, Conn.).
Compounds of the invention were active in this assay.

[1] = tested on: TNF-α Production In THP 1 Cells; assay: Inhibition of LPS-induced TNF-α production in THP-1 cells, in vitro assay (ELISA); type: cell-based; details: Homo sapiens, LPS 0.5 μg/ml, 2 h, TNF-α by ELISA, read-out: IC50, μM (inhibition of TNF-α release)
Experimental: The ability of the compounds of this invention to inhibit the TNF-α release was determined using a minor modification of the methods described in described in Blifeld, C. et al. Transplantation, Vol. 51(2), 498-503, (1991).
THP-1 cells were suspended in culture medium [RPMI (Gibco-BRL, Gailthersburg, Md.) containing 15% fetal bovine serum, 0.02 mM 2-mercaptoethanol], at a concentration of 2.5×10^6 cells/ml and then plated in 96 well plate (0.2 ml aliquots in each well). Test compounds were dissolved in DMSO and then diluted with the culture medium such that the final DMSO concentration was […]. 20 μl aliquots of test solution or only medium with DMSO (control) were added to each well. The cells were incubated for 30 min., at 37° C. LPS (Sigma, St. Louis, Mo.) was added to the wells at a final concentration of 0.5 μg/ml, and cells were incubated for an additional 2 h. At the end of the incubation period, culture supernatants were collected and the amount of TNF-α present was determined using an ELISA assay as described below.
The amount of human TNF-α present was determined by a specific trapping ELISA assay using two anti-TNF-α antibodies (2TNF-H22 and 2TNF-H34) described in Reimund, J. M., et al. GUT. Vol. 39(5), 684-689 (1996).
Polystyrene 96-well plates were coated with 50 μl per well of antibody 2TNF-H22 in PBS (10 μg/ml) and incubated in a humidified chamber at 4° C. overnight. The plates were washed with PBS and then blocked with 5% nonfat-dry milk in PBS for 1 hour at room temperature and washed with 0.1% BSA (bovine serum albumin) in PBS.
TNF standards were prepared from a stock solution of human recombinant TNF-α (R&D Systems, Minneapolis, Minn.). The concentration of the standards in the assay began at 10 ng/ml followed by 6 half log serial dilution's.
25 μl aliquots of the above culture supernatants or TNF standards or only medium (control) were mixed with 25 μl aliquots of biotinylated monoclonal antibody 2TNF-H34 (2 μg/ml in PBS containing 0.1% BSA) and then added to each well. The samples were incubated for 2 h at room temperature with gentle shaking and then washed 3 times with 0.1% BSA in PBS. 50 μl of peroxidase-streptavidin (Zymed, S. San Francisco, Calif.) solution containing 0.416 μg/ml of peroxidase-streptavidin and 0.1% BSA in PBS was added to each well. The samples were incubated for an additional 1 h at room temperature and then washed 4 times with 0.1% BSA in PBS. 50 μl of O-phenylenediamine solution (1 μg/ml O-phenylene-diamine and 0.03% hydrogen peroxide in 0.2M citrate buffer pH 4.5) was added to each well and the samples were incubated in the dark for 30 min., at room temperature. Optical density of the sample and the reference were read at 450 nm and 650 nm, respectively. TNF-α levels were determined from a graph relating the optical density at 450 nm to the concentration used.
The IC50 value was defined as the concentration of the test compound corresponding to half-maximal reduction in 450 nm absorbance. Compounds of the invention were active in this assay. The activity of selected compounds is shown below.

TNF-α Production In Rats = assay: Inhibition of LPS-induced TNF-α production in rats, in vivo assay; set-up: species or system rat; details: dosed orally at 30 mg, LPS 50 μg/kg intraperitoneally after 30 min, serum TNF-α 1.5 h later
Experimental: The ability of the compounds of this invention to inhibit the TNF-α release, in vivo, was determined using a minor modification of the methods described in described in Zanetti, G.; Heumann, D., et. al. “Cytokine production after intravenous or peritoneal Gram-negative bacterial challenge in mice,” J. Immunol., 148, 1890, (1992) and Sekut, L., Menius, J. A., et. al., “Evaluation of the significance of elevated levels of systemic and localized tumor necrosis factor in different animal models of inflammation,” J. Lab. Clin. Med., 124, 813, (1994).
Female Sprague-Dawley rats weighing 110-140 grams (Charles River, Hollister, Calif.) were acclimated for one week. Groups containing 8 […] each were dosed orally either with the test compounds dissolved in an aqueous vehicle containing 0.9% sodium chloride, 0.5% sodium carboxymethyl-cellulose, 0.4% polysorbate 80, 0.9% benzyl alcohol (CMC vehicle) or only vehicle (control group). After 30 min., the mice were injected intraperitoneally with 50 μg/kg of LPS (Sigma, St. Louis, Mo.). After 1.5 h, the mice were sacrificed by CO2 inhalation and blood was harvested by cardiocentesis. Blood was clarified by centrifugation at 15,600×g for 5 min., and sera were transferred to clean tubes and frozen at −20° C. until analyzed for TNF-α by ELISA assay (Biosource International, Camarillo, Calif.) following the manufacturer's protocol. […]

T1 sequence (Q16539 whole entry): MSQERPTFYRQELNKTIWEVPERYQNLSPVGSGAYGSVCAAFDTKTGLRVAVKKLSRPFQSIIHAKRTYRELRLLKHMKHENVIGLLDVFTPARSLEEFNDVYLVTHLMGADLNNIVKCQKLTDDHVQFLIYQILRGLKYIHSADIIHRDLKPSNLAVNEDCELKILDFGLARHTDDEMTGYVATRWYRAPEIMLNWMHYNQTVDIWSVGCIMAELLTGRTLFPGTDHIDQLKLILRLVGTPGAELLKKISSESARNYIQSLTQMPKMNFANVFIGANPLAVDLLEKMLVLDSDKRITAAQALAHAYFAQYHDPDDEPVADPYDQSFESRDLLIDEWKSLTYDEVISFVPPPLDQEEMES

In the case of `Nc1c(C(=O)c2ccc(C=CCN3CCOCC3)cc2)cnn1-c1ccc(F)cc1` [compound 2], the IC50 (p38 MAP kinase) is reported as 3.29 µM, the IC50 [1] is reported as 6.3 µM and the melting point is reported as 166.7 to 168.2 °C.
`N#CCCCOc1cccc(C(=O)c2cnn(-c3ccc(F)cc3)c2N)c1` [compound 27] showed an IC50 (p38 MAP kinase) of 2.72 µM and an IC50 [1] of 0.83 µM.
Molecule `CN1CCN(C(=O)COc2cccc(C(=O)c3cnn(-c4ccc(F)cc4)c3N)c2)CC1` [compound 38] has an IC50 (p38 MAP kinase) of 6.31 µM and an IC50 [1] of 0.69 µM.
Molecule `Nc1cccc(C(=O)c2cnn(-c3ccc(F)cc3)c2N)c1` [compound 43, 5-amino-4-(3-aminobenzoyl)-1-(4-fluorophenyl)pyrazole] has an IC50 (p38 MAP kinase) of 6.52 µM, an IC50 [1] of 0.17 µM and a melting point of 165.2 to 165.8 °C.
Work on `Nc1c(C(=O)c2cccc(C=CCN3CCOCC3)c2)cnn1-c1ccc(F)cc1` [compound 4] yielded an IC50 (p38 MAP kinase) of 6.18 µM, an IC50 [1] of 1.26 µM and a melting point of 161.6 to 162.8 °C.
In the case of `Nc1c(C(=O)c2cccc(OCCCN3CCCCC3)c2)cnn1-c1ccc(F)cc1` [compound 21], the IC50 (p38 MAP kinase) is reported as 2.18 µM and the IC50 [1] is reported as 0.61 µM.
`Nc1c(C(=O)c2cccc(N3CCC(Cc4ccccc4)CC3)c2)cnn1-c1ccc(F)cc1` [compound 33] gave an IC50 (p38 MAP kinase) of 1.12 µM, an IC50 [1] of 0.14 µM and a melting point of 156.2 to 160.9 °C.
For `CN1CCN(CC#Cc2cccc(C(=O)c3cnn(-c4ccc(F)cc4)c3N)c2)CC1.Cl.Cl` [compound 8, 5-amino-1-(4-fluorophenyl)-4-{3-[3-(4-methylpiperazin-1-yl)prop-1-ynyl]benzoyl}pyrazole.2HCl], the “% Inhibition (TNF-α content in test group relative to vehicle treated group)” value (TNF-α Production In Rats) was 86%.
In the case of `Nc1c(C(=O)c2cccc(OCCN3CCOCC3)c2)cnn1-c1ccc(F)cc1` [compound 13, 5-amino-1-(4-fluorophenyl)-4-[3-(2-morpholin-4-ylethoxy)benzoyl]pyrazole], the IC50 [1] is reported as 0.77 µM.
In the case of `Nc1c(C(=O)c2ccc(CCCO)cc2)cnn1-c1ccccc1` [compound 1], the IC50 (p38 MAP kinase) is reported as 1.81 µM, the IC50 [1] is reported as 1.77 µM and the melting point is reported as 148 to 152.5 °C.
Molecule `Nc1c(C(=O)c2cccc(C=CS(N)(=O)=O)c2)cnn1-c1ccc(F)cc1` [compound 10, 5-amino-4-[3-(2-aminosulfonylethenyl)benzoyl]-1-(4-fluorophenyl)pyrazole] has an IC50 [1] of 1.62 µM.
